Source: patent US9617212B2, “Isoindolin-1-ones as macrophage migration inhibitory factor (MIF) inhibitors” (Controlled Chemicals, Inc., priority 2013, dated 2017)
Read-outs that look alike come from different tables or passages of the source.

Molecular target: T1, Human MIF (MIF tautomerase) (Homo sapiens, UniProt P14174)
T1 construct: purchased ProSpec
T1 sequence (P14174 2-115 limits assumed): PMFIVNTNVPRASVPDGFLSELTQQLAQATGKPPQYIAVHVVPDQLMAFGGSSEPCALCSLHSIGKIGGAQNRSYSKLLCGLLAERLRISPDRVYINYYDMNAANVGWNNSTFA
Experiment: MIF Tautomerase Inhibitory Assay with L-Dopachrome Methyl Ester
Assay type: biochemical
Settings: MIF tautomerase inhibition, L-dopachrome methyl ester substrate, pH 7.34, no pre-incubation
Method: MIF Tautomerase Inhibitory Assay with L-Dopachrome Methyl Ester
Assay Method (pH 7.34, 0.017-0.033% DMSO, 0.034% EtOH): A fresh stock solution of L-dopachrome methyl ester in MeOH was prepared at 55-65 mM through oxidation of L-3,4-dihydroxyphenylalanine methyl ester hydrochloride with sodium periodate according to the procedure described in WO9729635A1. MeOH was removed from 0.5 mL of the L-dopachrome methyl ester/MeOH solution (55-65 mM) under a stream of argon and the residue taken up in appropriate amount of water to prepare a substrate solution (7-10 mM). Active Human MIF (from ProSpec) ([…]) was dissolved in 675 μL 0.1% bovine serum albumin (BSA) in water, and the resultant MIF solution (1 volume) mixed with 55 volumes of Na2HPO4 buffer (50 mM, pH 7.34) to form a 265 ng/mL MIF working solution. MIF working solution (280 μL) or a no-MIF working solution (prepared by mixing 0.1% BSA (1 volume) with the aforementioned Na2HPO4 buffer (55 volumes)) was transferred to wells in a column of 8 wells on a 96-well plate in a Plate Reader (SPECTRAmax Plus 384, Molecular Devices), and 5 μL of H2O/DMSO (99/1) containing no inhibitor or an inhibitor (whose concentration was verified by HPLC). Without pre-mixing or pre-incubation, 10 μL freshly prepared L-dopachrome methyl ester/H2O solution (7-10 mM) was added to each well with a multi-pipet. The assay samples were mixed immediately by sucking up and expelling the contents of the wells three times with a multi-pipet. The absorbance (A1) at 475 nm was then recorded for each sample every 2 s for 3 min. After 5-6 min, the samples were monitored again for 3 min with a reading every two seconds at 475 nm (A2). It can be shown that when [substrate]<<Km, plots of Ln(A1−A2) versus time are linear with slopes m (Eq 1). IC50 values were estimated from Eq 2-5, the inhibitor concentration [I] in the assay mixture and values of m in the presence (mi), absence (mo) of the inhibitor, the value of m observed for the non-MIF blank (mn), the MIF concentration (e), and the specificity constant for the MIF catalyzed reaction (kcat/Km). Ln(A1−A2)=−mt (Eq 1) F=(mi−mn)/(mo−mn) (Eq 2) Wherein mo−mn=ekcat/Km (Eq 3) and mi−mn=(ekcat/Km)[…] (Eq 4) IC50=[I]F/(1−F) (Eq 5)
The compounds listed in Table 1, provided herein, were prepared via procedures identical or similar to those described in the Examples 1-85. The listed compounds were >95% pure by HPLC. Each listed compound yielded a mass spectrum consistent with its structure. Concentrations of MIF tautomerase inhibitors used in the assay were verified by HPLC and the extinction coefficients of the inhibitors. The designated relative potency of MIF tautomerase inhibitors is based on the IC50 as determined by the method described in Biochemical Assay as follows: A, IC50<1 μM; B, 1 μM≦IC50<5 μM; C, 5 μM≦IC50<10 μM; D, 10 μM≦IC50<50 μM; E, 50 μM≦IC50<200 μM.

[1] = relative potency class, read-out: IC50

SMILES | IC50 [1] | IC50 (IC50, relative potency class)
O=C1c2cc(O)ccc2CN1C[C@H]1CC[C@H](C(O)CCC2CCCCC2)CC1 (stereo partly drawn) | < 1000 nM | 
CC([C@H]1CC[C@H](CN2Cc3ccc(O)cc3C2=O)CC1)N1CCOCC1 (stereo partly drawn) | < 1000 nM | 
CC[C@@H](C(=O)OC(C)[C@H]1CC[C@H](CN2Cc3ccc(O)c(F)c3C2=O)CC1)c1ccccc1 (stereo partly drawn) | < 1000 nM | 
COc1cccc(OC(C)[C@H]2CC[C@H](CN3Cc4cc(F)c(O)c(F)c4C3=O)CC2)c1 (stereo partly drawn) | < 1000 nM | 
COC(=O)CCN1Cc2ccc(O)cc2C1=O | 5000 to 10000 nM | 
O=C1c2cc(O)ccc2CN1CCc1ccc(F)cc1 | 10000 to 50000 nM | 
CC(Oc1cccc(OCCN2CCOCC2)c1)[C@H]1CC[C@H](CN2Cc3ccc(O)c(F)c3C2=O)CC1 (stereo partly drawn) | < 1000 nM | 
C[C@@H](OC(=O)CCC(=O)O)[C@H]1CC[C@H](CN2Cc3ccc(O)c(F)c3C2=O)CC1 (single isomer, unassigned) | < 1000 nM | 
CC(Oc1cccc(OC(F)(F)F)c1)[C@H]1CC[C@H](CN2Cc3ccc(O)c(F)c3C2=O)CC1 (stereo partly drawn) | < 1000 nM | 
CNC(=O)CCNC(C)C1CCC(CN2Cc3ccc(O)c(F)c3C2=O)CC1 (stereo not drawn) | < 1000 nM | 
O=C1c2cc(O)ccc2CN1C[C@H]1CC[C@H](C(=O)N2CCCCC2)CC1 | < 1000 nM | 
CN(C)C(=O)[C@H]1CC[C@H](CN2Cc3ccc(O)cc3C2=O)CC1 | 1000 to 5000 nM | 
CC(C)OC(=O)[C@H]1CC[C@H](CN2Cc3ccc(O)cc3C2=O)CC1 | < 1000 nM | 
CC(N)[C@H]1CC[C@H](CN2Cc3ccc(O)cc3C2=O)CC1 (stereo partly drawn) | 1000 to 5000 nM | 
CC(O)[C@H]1CC[C@H](CN2Cc3ccc(O)cc3C2=O)CC1 (stereo partly drawn) | < 1000 nM | 
O=C1c2cc(O)ccc2CN1C[C@H]1CC[C@H](CO)CC1 | 1000 to 5000 nM | 
O=C1c2c(ccc(O)c2F)CN1C[C@H]1CC[C@H](COc2cccc(F)c2)CC1 | < 1000 nM | 
O=C1c2cc(O)ccc2CN1C[C@H]1CC[C@H](CN2CCOCC2)CC1 | 1000 to 5000 nM | 
N[C@@H](COc1cccc(OC[C@H]2CC[C@H](CN3Cc4ccc(O)c(F)c4C3=O)CC2)c1)C(=O)O | < 1000 nM | 
CC(C)[C@@H](CO)NC(C)[C@H]1CC[C@H](CN2Cc3ccc(O)cc3C2=O)CC1 (stereo partly drawn) [drawing 110] | < 1000 nM | 
CNCCOc1cccc(OC[C@H]2CC[C@H](CN3Cc4ccc(O)c(F)c4C3=O)CC2)c1 | < 1000 nM | 
CCCNC(C)[C@H]1CC[C@H](CN2Cc3ccc(O)cc3C2=O)CC1 (stereo partly drawn) | 1000 to 5000 nM | 
COC(=O)[C@H](NC(C)C1CCC(CN2Cc3ccc(O)c(F)c3C2=O)CC1)C(C)C (stereo partly drawn) | < 1000 nM | 
O=C1c2cc(O)ccc2CN1CC1CCCCC1 | 1000 to 5000 nM | 
O=C1c2cc(O)ccc2CN1CCC1CCCCC1 | 5000 to 10000 nM | 

SMILES | IC50 [1] | IC50 (IC50, relative potency class)
CCC(Oc1cccc(OC(F)(F)F)c1)C1CCC(CN2Cc3ccc(O)c(F)c3C2=O)CC1 (stereo not drawn) | < 1000 nM | 
COc1cc(F)cc(OC[C@H]2CC[C@H](CN3Cc4ccc(O)cc4C3=O)CC2)c1 | < 1000 nM | 
CC(N)[C@H]1CC[C@H](CN2Cc3cc(F)c(O)c(F)c3C2=O)CC1 (stereo partly drawn) | 1000 to 5000 nM | 
CC(N[C@H](CO)C(=O)O)[C@H]1CC[C@H](CN2Cc3ccc(O)c(F)c3C2=O)CC1 (single isomer, unassigned) | < 1000 nM | 
CC(Oc1cccc(OC[C@H](N)C(=O)O)c1)[C@H]1CC[C@H](CN2Cc3ccc(O)c(F)c3C2=O)CC1 (stereo partly drawn) | < 1000 nM | 
COC(=O)[C@H](C)NC(C)C1CCC(CN2Cc3ccc(O)c(F)c3C2=O)CC1 (stereo partly drawn) | < 1000 nM | 
CC(C)NC(C)[C@H]1CC[C@H](CN2Cc3ccc(O)cc3C2=O)CC1 (stereo partly drawn) | 1000 to 5000 nM | 
CC(N[C@@H](C(=O)O)C(C)C)C1CCC(CN2Cc3ccc(O)c(F)c3C2=O)CC1 (stereo partly drawn) | < 1000 nM | 
CC(=O)N(C)CCOc1cccc(OC[C@H]2CC[C@H](CN3Cc4ccc(O)c(F)c4C3=O)CC2)c1 | < 1000 nM | 
CCCC(Oc1cccc(F)c1)[C@H]1CC[C@H](CN2Cc3ccc(O)cc3C2=O)CC1 (stereo partly drawn) | < 1000 nM | 
CC(=O)NC(C)[C@H]1CC[C@H](CN2Cc3ccc(O)c(F)c3C2=O)CC1 (stereo partly drawn) | < 1000 nM | 
CC(NCCO)C1CCC(CN2Cc3ccc(O)c(F)c3C2=O)CC1 (stereo not drawn) | < 1000 nM | 
O=C1c2cc(O)ccc2CN1C[C@H]1CC[C@H](C(=O)OC2CCCC2)CC1 | 5000 to 10000 nM | 
COc1cc(OC(C)[C@H]2CC[C@H](CN3Cc4ccc(O)c(F)c4C3=O)CC2)ccc1F (stereo partly drawn) | < 1000 nM | 
CCC(C)OC(=O)[C@H]1CC[C@H](CN2Cc3ccc(O)cc3C2=O)CC1 (stereo partly drawn) | 1000 to 5000 nM | 
O=C1c2cc(O)ccc2CN1[C@H]1CC[C@H](O)CC1 | 10000 to 50000 nM | 
CC(N[C@@H](C)C(=O)O)[C@H]1CC[C@H](CN2Cc3ccc(O)c(F)c3C2=O)CC1 (single isomer, unassigned) | < 1000 nM | 
CC(NCC(=O)O)[C@H]1CC[C@H](CN2Cc3ccc(O)c(F)c3C2=O)CC1 (stereo partly drawn) | < 1000 nM | 
CC(C)[C@@H](NC(C)[C@H]1CC[C@H](CN2Cc3ccc(O)c(F)c3C2=O)CC1)C(=O)O (single isomer, unassigned) | < 1000 nM | 
CC1CCC(N2Cc3ccc(O)cc3C2=O)CC1 (stereo not drawn) | 1000 to 5000 nM | 
CC(Oc1cccc(F)c1)[C@H]1CC[C@H](CN2Cc3cc(F)c(O)cc3C2=O)CC1 (stereo partly drawn) | < 1000 nM | 
CNC(=O)[C@H](Cc1ccccc1)NC(C)C1CCC(CN2Cc3ccc(O)c(F)c3C2=O)CC1 (stereo partly drawn) [drawing 99] | < 1000 nM | 
NC[C@H]1CC[C@H](CN2Cc3ccc(O)c(F)c3C2=O)CC1 | 1000 to 5000 nM | 
COC(=O)CCCN1Cc2ccc(O)cc2C1=O | 5000 to 10000 nM | 
CC(O)[C@H]1CC[C@H](CN2Cc3cc(F)c(O)c(F)c3C2=O)CC1 (stereo partly drawn) | < 1000 nM | 

SMILES | IC50 [1] | IC50 (IC50, relative potency class)
O=C1c2cc(O)ccc2CN1CC1CCCCCC1 | 1000 to 5000 nM | 
CC(NC(CO)CO)C1CCC(CN2Cc3ccc(O)c(F)c3C2=O)CC1 (stereo not drawn) | < 1000 nM | 
CC(C)(O)[C@H]1CC[C@H](CN2Cc3ccc(O)cc3C2=O)CC1 | < 1000 nM | 
CC(C)(N)[C@H]1CC[C@H](CN2Cc3ccc(O)c(F)c3C2=O)CC1 | < 1000 nM | 
COC(=O)[C@@H](C)NC(C)C1CCC(CN2Cc3ccc(O)c(F)c3C2=O)CC1 (stereo partly drawn) [drawing 113] | < 1000 nM | 
CC(Oc1cccc(F)c1)[C@H]1CC[C@H](CN2Cc3cc(F)c(O)c(F)c3C2=O)CC1 (stereo partly drawn) | < 1000 nM | 
O=C1c2cc(O)ccc2CN1CCc1cccc(F)c1 | 5000 to 10000 nM | 
CC(=O)NC[C@H]1CC[C@H](CN2Cc3ccc(O)c(F)c3C2=O)CC1 | < 1000 nM | 
O=C1OCc2ccc(OC[C@H]3CC[C@H](CN4Cc5ccc(O)cc5C4=O)CC3)cc21 | < 1000 nM | 
O=C1c2cc(O)ccc2CN1C1CCCCCC1 | 5000 to 10000 nM | 
COc1cccc(OC(CCC2CCCCC2)[C@H]2CC[C@H](CN3Cc4ccc(O)cc4C3=O)CC2)c1 (stereo partly drawn) | 1000 to 5000 nM | 
CC(C)NC(C)[C@H]1CC[C@H](CN2Cc3cc(F)c(O)c(F)c3C2=O)CC1 (stereo partly drawn) | < 1000 nM | 
CC(=O)N[C@@H](COc1cccc(OC[C@H]2CC[C@H](CN3Cc4ccc(O)c(F)c4C3=O)CC2)c1)C(=O)O | < 1000 nM | 
CC(Oc1cccc(OCCN(C)C)c1)[C@H]1CC[C@H](CN2Cc3ccc(O)c(F)c3C2=O)CC1 (stereo partly drawn) | < 1000 nM | 
O=C1c2c(ccc(O)c2F)CN1C[C@H]1CC[C@H](CO)CC1 | < 1000 nM | 
CC(N[C@@H](C)C(=O)O)C1CCC(CN2Cc3ccc(O)c(F)c3C2=O)CC1 (stereo partly drawn) | < 1000 nM | 
COC(C)[C@H]1CC[C@H](CN2Cc3ccc(O)c(F)c3C2=O)CC1 (stereo partly drawn) | 1000 to 5000 nM | 
CC(=O)OC(CCC1CCCCC1)[C@H]1CC[C@H](CN2Cc3ccc(O)cc3C2=O)CC1 (stereo partly drawn) | < 1000 nM | 
COc1cccc(OC(C)[C@H]2CC[C@H](CN3Cc4ccc(O)c(F)c4C3=O)CC2)c1 (stereo partly drawn) | < 1000 nM | 
CCC(C(=O)OC(C)[C@H]1CC[C@H](CN2Cc3cc(F)c(O)cc3C2=O)CC1)c1ccccc1 (stereo partly drawn) | < 1000 nM | 
COC(=O)CCCCN1Cc2ccc(O)cc2C1=O | 1000 to 5000 nM | 
COC(=O)[C@@H](C)NC(C)C1CCC(CN2Cc3ccc(O)c(F)c3C2=O)CC1 (stereo partly drawn) [drawing 112] | < 1000 nM | 
CC(CC1CCCCC1)N1Cc2ccc(O)cc2C1=O (stereo not drawn) | 10000 to 50000 nM | 
CC(OC(=O)Cc1ccccc1)[C@H]1CC[C@H](CN2Cc3cc(F)c(O)cc3C2=O)CC1 (stereo partly drawn) |  | < 1000 nM
O=C1c2cc(O)ccc2CN1C[C@H]1CC[C@H](COc2cc(O)cc(F)c2)CC1 | 1000 to 5000 nM | 
